Measurements reported in a compilation of properties of binary mixtures (doi:10.1021/acs.jced.6b00596).

Assay: xn = mol fraction of the nth substance listed
Conditions: 100 kPa

COCCOCCOCCOCCOC + CCCCCC[n+]1ccn(C)c1.O=S(=O)([N-]S(=O)(=O)C(F)(F)F)C(F)(F)F
viscosity [mPa·s]
Conditions | x1 = 0.099 | x1 = 0.19 | x1 = 0.276 | x1 = 0.413 | x1 = 0.544
278.15 K | 171 | 130 | 109 | 78 | 50
283.15 K | 126 | 97 | 81 | 60 | –
288.15 K | – | 74 | 63 | – | –
293.15 K | 74 | 57 | – | – | –

CC(=O)[O-].CCCCCCCCCCCCCC[P+](CCCCCC)(CCCCCC)CCCCCC + COCCOCCOCCOCCOC
viscosity [mPa·s]
Conditions | 278.15 K | 283.15 K | 288.15 K | 293.15 K | 298.15 K | 303.15 K | 308.15 K | 313.15 K | 318.15 K | 323.15 K
x2 = 0.103 | 1160 | 789 | – | 392 | – | 216 | 166 | – | 103 | 84
x2 = 0.207 | – | – | 332 | 244 | 184 | 142 | 112 | 89 | 73 | 60
x2 = 0.299 | 401 | 291 | 215 | 162 | 125 | 99 | 79 | 64 | 53 | –
x2 = 0.4 | 257 | 191 | – | 111 | – | 70 | 57 | – | – | –
x2 = 0.499 | – | 121 | 92 | 73 | 58 | – | – | – | – | –

CCC=C[n+]1ccn(C)c1C.O=[N+]([O-])c1cn[n-]c1 + COCCOCCOCCOCCOC
viscosity [mPa·s]
Conditions | 278.15 K | 283.15 K | 288.15 K | 293.15 K | 298.15 K | 303.15 K | 308.15 K | 313.15 K | 318.15 K | 323.15 K
x1 = 0.4 | 70 | 51 | – | – | – | – | – | – | – | –
x1 = 0.5 | 139 | 97 | 70 | 53 | – | – | – | – | – | –
x1 = 0.601 | – | 176 | 121 | – | 65 | – | – | – | – | –
x1 = 0.701 | 622 | 385 | 249 | 169 | – | 89 | 69 | 53 | – | –
x1 = 0.801 | 1280 | 737 | 447 | 288 | 195 | – | 101 | 77 | 60 | –
x1 = 0.9 | 2810 | – | – | 525 | 338 | 228 | 161 | – | 89 | 70
x1 = 0.952 | – | 2200 | – | 706 | – | 289 | 204 | 140 | 104 | –

CCCCCCCCCCCCCC[P+](CCCCCC)(CCCCCC)CCCCCC.O=[N+]([O-])c1c[n-]cn1 + COCCOCCOCCOCCOC
viscosity [mPa·s]
Conditions | 278.15 K | 283.15 K | 288.15 K | 293.15 K | 298.15 K | 303.15 K | 308.15 K | 313.15 K | 318.15 K | 323.15 K
x2 = 0.189 | – | – | 726 | 522 | 384 | 290 | 222 | 173 | 138 | 111
x2 = 0.404 | 443 | 324 | 240 | 180 | 135 | – | 85 | 70 | 57 | –

CCCCCCCCCCCC[P+](CCCC)(CCCC)CCCC.c1c[n-]nn1 + COCCOCCOCCOCCOC
viscosity [mPa·s]
Conditions | x2 = 0.062 | x2 = 0.123 | x2 = 0.155 | x2 = 0.214 | x2 = 0.305 | x2 = 0.395 | x2 = 0.495 | x2 = 0.596
278.15 K | 1980 | 1230 | 907 | 671 | – | 226 | 131 | –
283.15 K | 1260 | 809 | 608 | 458 | 256 | 165 | 98 | 57
288.15 K | 824 | – | 419 | 320 | 186 | – | 75 | –
293.15 K | 557 | – | 297 | 231 | 139 | 95 | – | –
298.15 K | 389 | 276 | 218 | 171 | – | 74 | – | –
303.15 K | 280 | 203 | 164 | 130 | 84 | 59 | – | –

CCCCCCCC[P+](CC)(CC)CC.O=[N+]([O-])c1c[n-]cn1 + COCCOCCOCCOCCOC
viscosity [mPa·s]
Conditions | 278.15 K | 283.15 K | 288.15 K | 293.15 K | 298.15 K | 303.15 K | 308.15 K | 313.15 K | 318.15 K | 323.15 K
x1 = 0.499 | 77 | 60 | – | – | – | – | – | – | – | –
x1 = 0.599 | – | 93 | 72 | 56 | – | – | – | – | – | –
x1 = 0.699 | – | 153 | – | 87 | 69 | 55 | – | – | – | –
x1 = 0.8 | 385 | 274 | 198 | 148 | 113 | 88 | 70 | 57 | – | –
x1 = 0.9 | 700 | 481 | 337 | 243 | – | 137 | 107 | 85 | 69 | 56
x1 = 1 | – | 838 | – | 398 | 286 | 212 | 160 | 124 | 98 | 78
